Where only a bound is given, the exact number is not on record here.

For orientation: IC50 means the point on the concentration scale where inhibition reaches its midpoint.

One assay addresses BACE (Homo sapiens (Human), UniProt P56817). Kind of assay: In vitro BACE cell-based assay (Aβ40 in conditioned medium, sandwich ELISA).
In assay [1] the target is Beta Secretase enzyme (BACE) (Homo sapiens (Human), UniProt P56817). Kind of assay: In vitro enzymatic BACE FRET assay. Format: biochemical. Conditions: read-out: BACE1 Enzyme assay IC50.
Chain of Beta Secretase enzyme (BACE) (P56817 46-501): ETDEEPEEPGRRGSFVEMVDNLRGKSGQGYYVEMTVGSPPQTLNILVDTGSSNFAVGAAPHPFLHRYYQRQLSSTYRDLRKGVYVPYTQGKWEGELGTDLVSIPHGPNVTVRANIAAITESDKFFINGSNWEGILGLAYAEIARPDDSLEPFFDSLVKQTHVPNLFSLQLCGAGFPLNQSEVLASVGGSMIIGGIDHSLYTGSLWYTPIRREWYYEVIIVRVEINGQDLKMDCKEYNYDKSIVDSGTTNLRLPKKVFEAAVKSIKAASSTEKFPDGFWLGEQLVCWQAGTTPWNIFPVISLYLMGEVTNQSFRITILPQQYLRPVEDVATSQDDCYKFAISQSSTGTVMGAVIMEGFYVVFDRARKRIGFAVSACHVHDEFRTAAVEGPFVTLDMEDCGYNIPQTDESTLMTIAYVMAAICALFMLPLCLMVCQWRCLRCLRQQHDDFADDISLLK
Another assay has as its target Cathepsin D (Cat D) (Homo sapiens (Human), UniProt P07339). Kind of assay: In vitro enzymatic Cathepsin D (Cat D) FRET assay. Format: biochemical. The conditions noted are these: read-out: CatD IC50.

Chain of BACE (P56817 46-501, species assumed): as the sequence (P56817 46-501) above
Chain of Cathepsin D (Cat D) (P07339 65-412, species assumed): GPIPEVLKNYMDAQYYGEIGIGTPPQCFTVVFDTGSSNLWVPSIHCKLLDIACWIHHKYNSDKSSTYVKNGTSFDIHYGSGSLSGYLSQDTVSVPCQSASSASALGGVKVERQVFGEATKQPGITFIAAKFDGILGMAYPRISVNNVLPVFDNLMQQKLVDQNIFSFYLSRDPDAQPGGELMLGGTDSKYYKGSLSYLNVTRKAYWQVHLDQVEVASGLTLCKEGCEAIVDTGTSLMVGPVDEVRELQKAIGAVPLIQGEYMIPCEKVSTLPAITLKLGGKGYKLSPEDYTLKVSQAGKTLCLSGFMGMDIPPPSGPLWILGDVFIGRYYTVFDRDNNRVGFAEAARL

In the case of `NC1=N[C@](CF)(c2cc(Nc3nccc4cc(Cl)cnc34)ccc2F)[C@H]2C[C@H]2O1` [Example 345, (1R,5S,6R)-5-(5-((3-chloro-1,7-naphthyridin-8-yl)amino)-2-fluorophenyl)-5-(fluoromethyl)-2-oxa-4-azabicyclo[4.1.0]hept-3-en-3-amine], the 50% inhibitory concentration (IC50) on BACE came out at 0.0543 µM; in assay [1], 0.0713 µM; on Cathepsin D (Cat D), 282 µM.
Taken in the same sequence, the figures for `N#Cc1cnc2c(Nc3ccc(F)c([C@@]4(CF)N=C(N)O[C@@H]5C[C@@H]54)c3)nccc2c1` [Example 346, 8-((3-((1R,5S,6R)-3-amino-5-(fluoromethyl)-2-oxa-4-azabicyclo[4.1.0]hept-3-en-5-yl)-4-fluorophenyl)amino)-1,7-naphthyridine-3-carbonitrile] were 0.0176 µM, 0.0539 µM and 205 µM.
Consider `NC1=N[C@](CF)(c2cc(Nc3ncnc4cc(Cl)cnc34)ccc2F)[C@H]2C[C@H]2O1` [Example 347, (1R,5S,6R)-5-(5-((7-chloropyrido[3,2-d]pyrimidin-4-yl)amino)-2-fluorophenyl)-5-(fluoromethyl)-2-oxa-4-azabicyclo[4.1.0]hept-3-en-3-amine], for which the figures for the concentration for half-maximal inhibition (IC50) (on BACE; in assay [1]; at Cathepsin D (Cat D)) were 0.0624 µM, 0.133 µM and 106 µM, respectively.
Take `COc1cnc2c(Nc3ccc(F)c([C@@]4(C(F)F)N=C(N)O[C@@H]5C[C@@H]54)c3)nccc2c1` [Example 348, (1R,5S,6R)-5-(difluoromethyl)-5-(2-fluoro-5-((3-methoxy-1,7-naphthyridin-8-yl)amino)phenyl)-2-oxa-4-azabicyclo[4.1.0]hept-3-en-3-amine]: the figures for the IC50 (against BACE; in assay [1]; at Cathepsin D (Cat D)) were 0.106 µM, 0.456 µM and 738 µM, respectively.
The like results for `N#Cc1cnc2c(Nc3ccc(Cl)c([C@@]4(C(F)F)N=C(N)O[C@@H]5C[C@@H]54)c3)ncc(F)c2c1` [Example 350, 8-((3-((1R,5S,6R)-3-amino-5-(difluoromethyl)-2-oxa-4-azabicyclo[4.1.0]hept-3-en-5-yl)-4-chlorophenyl)amino)-5-fluoro-1,7-naphthyridine-3-carbonitrile] were, in that order, 0.0628 µM, 0.0319 µM and greater than 14.8 µM.
For the molecule `N#Cc1cnc2c(Nc3ccc(F)c([C@@]4(C(F)F)N=C(N)O[C@@H]5C[C@@H]54)c3)ncc(F)c2c1` [Example 352, 8-((3-((1R,5S,6R)-3-amino-5-(difluoromethyl)-2-oxa-4-azabicyclo[4.1.0]hept-3-en-5-yl)-4-fluorophenyl)amino)-5-fluoro-1,7-naphthyridine-3-carbonitrile], the 50% inhibitory concentration (IC50) against BACE came out at 0.0593 µM; in assay [1], 0.0391 µM; at Cathepsin D (Cat D) it was 192 µM.
Taken in the same sequence, the figures for `NC1=N[C@@](c2cc(Nc3ncnc4cc(Cl)cnc34)ccc2F)(C(F)F)[C@H]2C[C@H]2O1` [Example 353, (1R,5S,6R)-5-(5-((7-chloropyrido[3,2-d]pyrimidin-4-yl)amino)-2-fluorophenyl)-5-(difluoromethyl)-2-oxa-4-azabicyclo[4.1.0]hept-3-en-3-amine] were 0.0503 µM, 0.0639 µM and 141 µM.
The like results for `COc1cnc2c(Nc3ccc(F)c([C@]4(CF)N=C(N)O[C@H]5C[C@H]54)c3F)nccc2n1` [Example 354, (1S,5R,6S)-5-(2,6-difluoro-3-((2-methoxypyrido[3,4-b]pyrazin-5-yl)amino)phenyl)-5-(fluoromethyl)-2-oxa-4-azabicyclo[4.1.0]hept-3-en-3-amine] were, in that order, 1.46 µM, 12.7 µM and 292 µM.
With `COc1cnc2c(Nc3ccc(F)c([C@@]4(CF)N=C(N)O[C@@H]5C[C@@H]54)c3F)nccc2n1` [Example 355, (1R,5S,6R)-5-(2,6-difluoro-3-((2-methoxypyrido[3,4-b]pyrazin-5-yl)amino)phenyl)-5-(fluoromethyl)-2-oxa-4-azabicyclo[4.1.0]hept-3-en-3-amine], the 50% inhibitory concentration (IC50) against BACE was greater than 15.6 µM; in assay [1] it was greater than 40 µM; on Cathepsin D (Cat D), 2750 µM.
The like results for `CC(C)Oc1cnc2c(Nc3cc(Cl)c(F)c([C@@]4(CF)N=C(N)O[C@@H]5C[C@@H]54)c3)nccc2n1` [Example 357, (1R,5S,6R)-5-(3-chloro-2-fluoro-5-((2-isopropoxypyrido[3,4-b]pyrazin-5-yl)amino)phenyl)-5-(fluoromethyl)-2-oxa-4-azabicyclo[4.1.0]hept-3-en-3-amine] were, in that order, 0.918 µM, 0.375 µM and 323 µM.
Taken in the same sequence, the figures for `Cn1cc2ccnc(Nc3ccc(F)c([C@@]4(C(F)F)N=C(N)O[C@@H]5C[C@@H]54)c3)c2n1` [Example 358] were 0.134 µM, 2.09 µM and greater than 400 µM.
Taken in the same sequence, the figures for `NC1=N[C@](CF)(c2cc(Nc3nccc4cc(Cl)cnc34)ccc2Cl)[C@H]2C[C@H]2O1` [Example 359, (1R,5S,6R)-5-(2-chloro-5-((3-chloro-1,7-naphthyridin-8-yl)amino)phenyl)-5-(fluoromethyl)-2-oxa-4-azabicyclo[4.1.0]hept-3-en-3-amine] were 0.0656 µM, 0.0291 µM and 251 µM.
As for `COc1cnc2c(Nc3ccc(Cl)c([C@@]4(CF)N=C(N)O[C@@H]5C[C@@H]54)c3)nccc2c1` [Example 360, (1R,5S,6R)-5-(2-chloro-5-((3-methoxy-1,7-naphthyridin-8-yl)amino)phenyl)-5-(fluoromethyl)-2-oxa-4-azabicyclo[4.1.0]hept-3-en-3-amine], the IC50 at BACE is 0.139 µM; in assay [1] it was 1.26 µM; on Cathepsin D (Cat D), 843 µM.
Taken in the same sequence, the figures for `NC1=N[C@@](c2cc(Nc3nccc4cc(Cl)cnc34)ccc2F)(C(F)F)[C@H]2C[C@H]2O1` [Example 362, (1R,5S,6R)-5-(5-((3-chloro-1,7-naphthyridin-8-yl)amino)-2-fluorophenyl)-5-(difluoromethyl)-2-oxa-4-azabicyclo[4.1.0]hept-3-en-3-amine] were 0.254 µM, 0.0335 µM and 400 µM.
Taken in the same sequence, the figures for `N#Cc1cnc2c(Nc3ccc(Cl)c([C@@]4(CF)N=C(N)O[C@@H]5C[C@@H]54)c3)ncc(F)c2c1` [Example 363, 8-((3-((1R,5S,6R)-3-amino-5-(fluoromethyl)-2-oxa-4-azabicyclo[4.1.0]hept-3-en-5-yl)-4-chlorophenyl)amino)-5-fluoro-1,7-naphthyridine-3-carbonitrile] were 0.13 µM, 0.0682 µM and greater than 44.4 µM.
Taken in the same sequence, the figures for `COc1cnc2c(Nc3ccc(F)c([C@@]4(C(F)F)N=C(N)O[C@@H]5C[C@@H]54)c3)ncnc2c1` [Example 364, (1R,5S,6R)-5-(difluoromethyl)-5-(2-fluoro-5-((7-methoxypyrido[3,2-d]pyrimidin-4-yl)amino)phenyl)-2-oxa-4-azabicyclo[4.1.0]hept-3-en-3-amine] were 0.122 µM, 0.224 µM and 596 µM.
For the molecule `NC1=N[C@@](c2cc(Nc3nccc4nc(C(F)(F)F)cnc34)ccc2F)(C(F)F)[C@H]2C[C@H]2O1` [Example 365, (1R,5S,6R)-5-(difluoromethyl)-5-(2-fluoro-5-((2-(trifluoromethyl)pyrido[3,4-b]pyrazin-5-yl)amino)phenyl)-2-oxa-4-azabicyclo[4.1.0]hept-3-en-3-amine], the half-maximal inhibitory concentration (IC50) on BACE was 0.254 µM; in assay [1], 0.205 µM; on Cathepsin D (Cat D), greater than 44.4 µM.
As to `N#Cc1cnc2c(Nc3cc(F)c(F)c([C@]4(C(F)F)N=C(N)O[C@H]5C[C@H]54)c3)ncc(F)c2c1` [Example 366, 8-((3-((1S,5R,6S)-3-amino-5-(difluoromethyl)-2-oxa-4-azabicyclo[4.1.0]hept-3-en-5-yl)-4,5-difluorophenyl)amino)-5-fluoro-1,7-naphthyridine-3-carbonitrile], the concentration for half-maximal inhibition (IC50) at BACE was greater than 16 µM; in assay [1], greater than 13.7 µM; at Cathepsin D (Cat D) it was 128 µM.
The like results for `N#Cc1cnc2c(Nc3cc(F)c(F)c([C@@]4(C(F)F)N=C(N)O[C@@H]5C[C@@H]54)c3)ncc(F)c2c1` [Example 367, 8-((3-((1R,5S,6R)-3-amino-5-(difluoromethyl)-2-oxa-4-azabicyclo[4.1.0]hept-3-en-5-yl)-4,5-difluorophenyl)amino)-5-fluoro-1,7-naphthyridine-3-carbonitrile] were, in that order, 0.524 µM, 0.0515 µM and 103 µM.
Taken in the same sequence, the figures for `NC1=N[C@@](c2cc(NCC3CCC3)ccc2F)(C(F)F)[C@H]2C[C@H]2O1` [Example 368, (1R,5S,6R)-5-(5-((cyclobutylmethyl)amino)-2-fluorophenyl)-5-(difluoromethyl)-2-oxa-4-azabicyclo[4.1.0]hept-3-en-3-amine] were 1.33 µM, 2.74 µM and 121 µM.
The like results for `NC1=N[C@@](c2cc(NCC#Cc3ccccc3)ccc2F)(C(F)F)[C@H]2C[C@H]2O1` [Example 369, (1R,5S,6R)-5-(difluoromethyl)-5-(2-fluoro-5-((3-phenylprop-2-yn-1-yl)amino)phenyl)-2-oxa-4-azabicyclo[4.1.0]hept-3-en-3-amine] were, in that order, 3.02 µM, 6.63 µM and 19.2 µM.
On to `NC1=N[C@@](c2cc(NCC3(c4ccc(Cl)cc4)CC3)ccc2F)(C(F)F)[C@H]2C[C@H]2O1` [Example 370, (1R,5S,6R)-5-(5-(((1-(4-chlorophenyl)cyclopropyl)methyl)amino)-2-fluorophenyl)-5-(difluoromethyl)-2-oxa-4-azabicyclo[4.1.0]hept-3-en-3-amine], for which the IC50 came out at 8.85 µM against BACE, 13.7 µM in assay [1] and 63.6 µM at Cathepsin D (Cat D).

These data come from patent publication US9085576B2 (AMGEN INC., priority 2013, dated 2015).
